Laboratory results reported in doi:10.1101/2023.03.24.534094v2 (biorxiv, 2023).
Like-named read-outs stand apart in the source and are kept apart here.

What was measured:
Assay in all cases: biochemical
BRD4 = BRD4 (Homo sapiens, UniProt O60885)
DMPK1 = molecular target: T1, DMPK1 (Homo sapiens, UniProt Q09013)
T1 sequence (Q09013 1-629): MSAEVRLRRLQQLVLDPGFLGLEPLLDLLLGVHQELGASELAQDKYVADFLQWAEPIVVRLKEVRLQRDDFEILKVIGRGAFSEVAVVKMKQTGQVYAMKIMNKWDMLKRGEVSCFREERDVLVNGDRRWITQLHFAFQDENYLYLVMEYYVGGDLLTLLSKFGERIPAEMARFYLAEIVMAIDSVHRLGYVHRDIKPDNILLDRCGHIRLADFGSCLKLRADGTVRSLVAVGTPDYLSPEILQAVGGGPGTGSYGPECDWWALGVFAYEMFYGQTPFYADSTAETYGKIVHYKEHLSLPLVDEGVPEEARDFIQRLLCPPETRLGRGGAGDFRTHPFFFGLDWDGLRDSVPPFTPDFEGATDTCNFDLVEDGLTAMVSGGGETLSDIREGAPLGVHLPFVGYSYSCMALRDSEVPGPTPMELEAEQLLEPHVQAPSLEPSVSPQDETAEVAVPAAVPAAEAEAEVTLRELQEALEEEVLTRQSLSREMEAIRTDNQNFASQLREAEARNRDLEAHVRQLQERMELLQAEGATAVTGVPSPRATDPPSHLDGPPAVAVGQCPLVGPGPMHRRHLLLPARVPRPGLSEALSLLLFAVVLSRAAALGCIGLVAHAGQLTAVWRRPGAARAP

DYRK1A = DYRK1A (Homo sapiens, UniProt Q13627)
JNK3 = JNK3 (Homo sapiens, UniProt P53779)
MARK3 = MARK3 (Homo sapiens, UniProt P27448)
MARK4 = molecular target: T2, MARK4 (Homo sapiens, UniProt Q96L34)
T2 sequence (Q96L34 1-752): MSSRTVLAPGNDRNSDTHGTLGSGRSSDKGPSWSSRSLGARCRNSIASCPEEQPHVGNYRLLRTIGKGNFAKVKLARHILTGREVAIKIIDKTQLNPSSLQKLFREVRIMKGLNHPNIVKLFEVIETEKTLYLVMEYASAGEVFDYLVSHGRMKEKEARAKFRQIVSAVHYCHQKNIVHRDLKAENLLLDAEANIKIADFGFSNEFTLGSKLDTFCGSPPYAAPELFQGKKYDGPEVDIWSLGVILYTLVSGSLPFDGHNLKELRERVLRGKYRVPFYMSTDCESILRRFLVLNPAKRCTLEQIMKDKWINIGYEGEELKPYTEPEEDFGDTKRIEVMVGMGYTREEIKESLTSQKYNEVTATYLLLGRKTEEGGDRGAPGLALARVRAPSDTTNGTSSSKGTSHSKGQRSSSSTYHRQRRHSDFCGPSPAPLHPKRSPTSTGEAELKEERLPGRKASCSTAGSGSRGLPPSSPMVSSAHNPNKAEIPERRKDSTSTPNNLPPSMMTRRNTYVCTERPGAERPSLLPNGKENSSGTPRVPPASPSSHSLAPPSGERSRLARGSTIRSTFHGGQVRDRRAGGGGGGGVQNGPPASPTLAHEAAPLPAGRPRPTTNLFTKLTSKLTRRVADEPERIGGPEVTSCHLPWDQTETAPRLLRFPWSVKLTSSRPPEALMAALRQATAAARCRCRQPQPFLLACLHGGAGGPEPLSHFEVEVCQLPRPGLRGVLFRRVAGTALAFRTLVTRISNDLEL

MSK1b = MSK1b (Homo sapiens, UniProt O75582)
PLK4 = molecular target: T3, PLK4 (Homo sapiens, UniProt O00444)
T3 sequence (O00444 1-970): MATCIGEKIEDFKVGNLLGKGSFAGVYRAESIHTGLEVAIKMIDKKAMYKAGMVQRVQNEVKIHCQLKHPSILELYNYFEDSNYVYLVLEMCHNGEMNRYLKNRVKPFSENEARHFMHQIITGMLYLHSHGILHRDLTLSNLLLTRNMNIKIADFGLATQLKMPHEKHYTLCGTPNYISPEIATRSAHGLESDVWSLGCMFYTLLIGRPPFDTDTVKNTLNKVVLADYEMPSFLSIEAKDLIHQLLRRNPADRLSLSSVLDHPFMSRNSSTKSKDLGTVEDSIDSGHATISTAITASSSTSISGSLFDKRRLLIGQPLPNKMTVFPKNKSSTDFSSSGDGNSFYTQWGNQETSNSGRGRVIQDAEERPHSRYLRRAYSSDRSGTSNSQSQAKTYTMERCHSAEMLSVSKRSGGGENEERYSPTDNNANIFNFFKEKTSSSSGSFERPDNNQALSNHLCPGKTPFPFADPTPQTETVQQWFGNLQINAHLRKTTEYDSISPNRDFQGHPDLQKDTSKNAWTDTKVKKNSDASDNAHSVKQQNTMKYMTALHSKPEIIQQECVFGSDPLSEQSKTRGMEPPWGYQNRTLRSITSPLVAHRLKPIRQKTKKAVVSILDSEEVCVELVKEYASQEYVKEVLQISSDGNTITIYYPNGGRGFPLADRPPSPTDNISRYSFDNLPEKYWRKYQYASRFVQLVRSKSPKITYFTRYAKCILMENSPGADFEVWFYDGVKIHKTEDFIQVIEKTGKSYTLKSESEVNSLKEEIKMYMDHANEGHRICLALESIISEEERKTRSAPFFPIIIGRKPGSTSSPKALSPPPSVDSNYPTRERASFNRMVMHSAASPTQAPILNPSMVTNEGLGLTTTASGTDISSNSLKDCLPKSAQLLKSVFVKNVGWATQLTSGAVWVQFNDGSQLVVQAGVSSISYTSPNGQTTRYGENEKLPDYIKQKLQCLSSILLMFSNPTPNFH

Chain of JNK3 (P53779 whole entry): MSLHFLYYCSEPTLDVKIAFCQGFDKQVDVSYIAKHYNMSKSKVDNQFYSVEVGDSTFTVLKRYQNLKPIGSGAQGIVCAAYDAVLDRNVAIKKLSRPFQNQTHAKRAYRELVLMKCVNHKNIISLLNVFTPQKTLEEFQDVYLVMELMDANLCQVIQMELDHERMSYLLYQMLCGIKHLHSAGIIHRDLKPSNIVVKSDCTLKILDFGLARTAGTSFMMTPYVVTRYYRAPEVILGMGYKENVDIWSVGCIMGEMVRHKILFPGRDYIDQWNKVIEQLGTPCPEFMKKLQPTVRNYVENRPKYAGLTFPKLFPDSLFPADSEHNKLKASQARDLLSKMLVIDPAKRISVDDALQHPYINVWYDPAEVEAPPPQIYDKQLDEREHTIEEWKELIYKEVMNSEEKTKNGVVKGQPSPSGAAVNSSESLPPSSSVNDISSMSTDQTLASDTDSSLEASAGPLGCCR
Chain of MARK3 (P27448 whole entry): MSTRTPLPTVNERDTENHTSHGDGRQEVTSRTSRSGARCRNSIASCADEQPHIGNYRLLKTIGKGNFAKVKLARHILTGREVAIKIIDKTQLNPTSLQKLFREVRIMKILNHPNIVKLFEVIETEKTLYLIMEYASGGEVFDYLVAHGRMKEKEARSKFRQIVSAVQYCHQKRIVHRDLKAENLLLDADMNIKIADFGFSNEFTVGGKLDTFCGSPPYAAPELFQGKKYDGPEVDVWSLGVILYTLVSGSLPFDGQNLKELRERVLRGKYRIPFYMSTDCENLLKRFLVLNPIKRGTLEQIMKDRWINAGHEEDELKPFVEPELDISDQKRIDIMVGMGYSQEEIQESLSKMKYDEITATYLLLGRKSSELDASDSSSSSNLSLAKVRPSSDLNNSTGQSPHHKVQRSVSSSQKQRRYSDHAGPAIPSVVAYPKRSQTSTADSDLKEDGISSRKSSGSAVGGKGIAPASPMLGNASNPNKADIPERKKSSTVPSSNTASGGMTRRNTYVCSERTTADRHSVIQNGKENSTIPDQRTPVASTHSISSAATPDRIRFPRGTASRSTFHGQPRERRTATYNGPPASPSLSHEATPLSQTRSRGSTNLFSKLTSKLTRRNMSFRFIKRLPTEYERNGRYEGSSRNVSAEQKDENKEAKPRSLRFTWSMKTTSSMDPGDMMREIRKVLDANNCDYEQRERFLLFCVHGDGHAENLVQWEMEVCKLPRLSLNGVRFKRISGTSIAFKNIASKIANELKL
Chain of MSK1b (O75582 whole entry): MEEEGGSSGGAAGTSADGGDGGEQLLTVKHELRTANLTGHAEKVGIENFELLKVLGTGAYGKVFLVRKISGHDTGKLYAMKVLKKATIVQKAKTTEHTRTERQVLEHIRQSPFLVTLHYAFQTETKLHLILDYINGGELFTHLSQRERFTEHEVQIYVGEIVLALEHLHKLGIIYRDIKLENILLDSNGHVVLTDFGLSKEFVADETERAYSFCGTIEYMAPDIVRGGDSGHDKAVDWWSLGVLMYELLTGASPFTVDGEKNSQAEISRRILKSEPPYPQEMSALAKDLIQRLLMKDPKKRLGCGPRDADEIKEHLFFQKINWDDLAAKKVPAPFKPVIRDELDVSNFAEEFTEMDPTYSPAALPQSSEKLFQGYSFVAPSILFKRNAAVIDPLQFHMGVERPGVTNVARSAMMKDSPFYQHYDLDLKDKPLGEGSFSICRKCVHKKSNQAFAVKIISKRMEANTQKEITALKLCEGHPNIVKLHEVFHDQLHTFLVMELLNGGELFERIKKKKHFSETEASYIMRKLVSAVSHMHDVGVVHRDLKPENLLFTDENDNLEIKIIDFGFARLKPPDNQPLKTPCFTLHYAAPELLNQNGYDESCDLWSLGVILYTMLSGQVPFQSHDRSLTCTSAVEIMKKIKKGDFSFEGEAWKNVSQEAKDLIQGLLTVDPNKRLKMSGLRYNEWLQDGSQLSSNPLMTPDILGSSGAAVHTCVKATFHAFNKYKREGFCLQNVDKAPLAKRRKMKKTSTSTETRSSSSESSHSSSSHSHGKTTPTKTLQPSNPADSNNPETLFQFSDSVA

Which ΔTm at 10 µM (BRD4; read-out: dTm 12) does the source give for CNc1ncc2cc(-c3cc(F)c(-c4cccc(C)n4)cc3F)c(=O)n(CCCCN)c2n1 [compound 12, 8-(4-Aminobutyl)-6-(2,5-difluoro-4-(6-methylpyridin-2-yl)phenyl)-2-(methylamino)pyrido[2,3-d]pyrimidin-7(8H)-one] here?
The ΔTm at 10 µM was -2 °C.

What about the ΔTm at 10 µM (DMPK1; read-out: dTm 12) of the same compound?
Its ΔTm at 10 µM is -0.1 °C.

What about the ΔTm at 10 µM (DYRK1A; read-out: dTm 12) of the same compound?
The ΔTm at 10 µM was 0.1 °C.

What about the ΔTm at 10 µM (JNK3; read-out: dTm 12) of the same compound?
The ΔTm at 10 µM was 0.4 °C.

And the ΔTm at 10 µM (MARK3; read-out: dTm 12)?
The ΔTm at 10 µM was 5.3 °C.

What about the ΔTm at 10 µM (MARK4; read-out: dTm 12) of the same compound?
Its ΔTm at 10 µM is 4.5 °C.

What about the ΔTm at 10 µM (MSK1b; read-out: dTm 12) of the same compound?
The ΔTm at 10 µM was 1 °C.

What about the ΔTm at 10 µM (PLK4; read-out: dTm 12) of the same compound?
The ΔTm at 10 µM was 6.3 °C.

How did the ΔTm at 10 µM (BRD4; read-out: dTm 9) turn out when CNc1ncc2cc(-c3cc(C(F)(F)F)ccc3Cl)c(=O)n(CCCCN)c2n1 [compound 9, 8-(4-Aminobutyl)-6-(2-chloro-5-(trifluoromethyl)phenyl)-2-(methylamino)pyrido[2,3-d]pyrimidin-7(8H)-one] was run?
Its ΔTm at 10 µM is 0.7 °C.

What about the ΔTm at 10 µM (DMPK1; read-out: dTm 9) of the same compound?
Its ΔTm at 10 µM is 1.4 °C.

And the ΔTm at 10 µM (DYRK1A; read-out: dTm 9)?
The ΔTm at 10 µM was -0.5 °C.

And the ΔTm at 10 µM (JNK3; read-out: dTm 9)?
Its ΔTm at 10 µM is 1.3 °C.

And the ΔTm at 10 µM (MARK3; read-out: dTm 9)?
The ΔTm at 10 µM was 0.7 °C.

And the ΔTm at 10 µM (MARK4; read-out: dTm 9)?
Its ΔTm at 10 µM is 0 °C.

What about the ΔTm at 10 µM (MSK1b; read-out: dTm 9) of the same compound?
Its ΔTm at 10 µM is 0.9 °C.

And the ΔTm at 10 µM (PLK4; read-out: dTm 9)?
The ΔTm at 10 µM was 0.3 °C.

How did the ΔTm at 10 µM (BRD4; read-out: dTm 8) turn out when CNc1ncc2cc(-c3cc(Cl)ccc3Cl)c(=O)n(CCCCN)c2n1 [compound 8, 8-(4-Aminobutyl)-6-(2,5-dichlorophenyl)-2-(methylamino)pyrido[2,3-d]pyrimidin-7(8H)-one] was run?
The ΔTm at 10 µM was 1.3 °C.

And the ΔTm at 10 µM (DMPK1; read-out: dTm 8)?
The ΔTm at 10 µM was 1.3 °C.

And the ΔTm at 10 µM (DYRK1A; read-out: dTm 8)?
Its ΔTm at 10 µM is -0.5 °C.

What about the ΔTm at 10 µM (JNK3; read-out: dTm 8) of the same compound?
Its ΔTm at 10 µM is 0.8 °C.

What about the ΔTm at 10 µM (MARK3; read-out: dTm 8) of the same compound?
The ΔTm at 10 µM was 2.7 °C.

And the ΔTm at 10 µM (MARK4; read-out: dTm 8)?
The ΔTm at 10 µM was 1 °C.

And the ΔTm at 10 µM (MSK1b; read-out: dTm 8)?
The ΔTm at 10 µM was 2.1 °C.

And the ΔTm at 10 µM (PLK4; read-out: dTm 8)?
Its ΔTm at 10 µM is 0.5 °C.

With CNc1ncc2cc(-c3cc(Cl)ccc3Br)c(=O)n(CCCCN)c2n1 [compound 10, 8-(4-Aminobutyl)-6-(2-bromo-5-chlorophenyl)-2-(methylamino)pyrido[2,3-d]pyrimidin-7(8H)-one] as the compound, how does the ΔTm at 10 µM (BRD4; read-out: dTm 10) read?
Its ΔTm at 10 µM is 1.2 °C.

What about the ΔTm at 10 µM (DMPK1; read-out: dTm 10) of the same compound?
Its ΔTm at 10 µM is 1.8 °C.

What about the ΔTm at 10 µM (DYRK1A; read-out: dTm 10) of the same compound?
Its ΔTm at 10 µM is -0.6 °C.

What about the ΔTm at 10 µM (JNK3; read-out: dTm 10) of the same compound?
The ΔTm at 10 µM was 1.3 °C.

And the ΔTm at 10 µM (MARK3; read-out: dTm 10)?
Its ΔTm at 10 µM is 3.7 °C.

And the ΔTm at 10 µM (MARK4; read-out: dTm 10)?
The ΔTm at 10 µM was 1.7 °C.

What about the ΔTm at 10 µM (MSK1b; read-out: dTm 10) of the same compound?
The ΔTm at 10 µM was 2.1 °C.

And the ΔTm at 10 µM (PLK4; read-out: dTm 10)?
Its ΔTm at 10 µM is 0.4 °C.

Which results are given for CNc1ncc2cc(-c3cc(Br)ccc3Br)c(=O)n(CCCCN)c2n1 [compound 11, 8-(4-Aminobutyl)-6-(2,5-dibromophenyl)-2-(methylamino)pyrido[2,3-d]pyrimidin-7(8H)-one]?
ΔTm at 10 µM (BRD4; read-out: dTm 11): 1 °C; ΔTm at 10 µM (DMPK1; read-out: dTm 11): 1.7 °C; ΔTm at 10 µM (DYRK1A; read-out: dTm 11): -0.3 °C; ΔTm at 10 µM (JNK3; read-out: dTm 11): 1.1 °C; ΔTm at 10 µM (MARK3; read-out: dTm 11): 3.6 °C; ΔTm at 10 µM (MARK4; read-out: dTm 11): 1.8 °C; ΔTm at 10 µM (MSK1b; read-out: dTm 11): 2 °C; ΔTm at 10 µM (PLK4; read-out: dTm 11): 0.6 °C
